{
  "source": "patent US9593363B2",
  "about": "“Methods and models for assessing anti-aging benefits of agents” (The Procter & Gamble Company, priority 2012, dated 2017)",
  "format_in_all_cases": "cell-based",
  "key": {"[1]": {"tested_on": "epidermal gene panel", "assay": "ex vivo human skin tissue culture, PCR fold change of epidermal gene panel vs untreated control", "conditions": "5 day time course, 33° C.; for relative fold change of epidermal gene panel (rank order): 70% relative humidity (FIG. 5A); for regulation of AQP3 / regulation of KRT10 and FLG: 70% relative humidity, tRA media applied, retinol and retinol propionate topically applied, N=6 (FIG. 5A)", "description": "Referring to FIG. 5A, a bar graph illustrates the fold change (compared to an untreated control) for the epidermal gene panel of FIG. 3 following media dosing with trans-retinoic acid (tRA), retinol, or retinol propionate (RP) over a 5 day time course. […] The doses were applied over a 5 day time course during which tRA was media applied while retinol and retinol propionate were topically applied to the ex-vivo tissue samples (N=6 per material) incubated at 33° C. and 70% relative humidity. At the end of 5 days, two 4 mm punch biopsies were removed from each of the tissue samples for RNA isolation followed by PCR analysis.\nThe fold-increase/decrease in expression, versus an untreated control, was determined for the epidermal gene panel set forth in FIG. 3 for ex vivo tissue from a single donor over a 7 day time course incubated at 37° C. at a relative humidity of 55%. The test agents were applied topically."}, "[2]": {"tested_on": "retinoid metabolism gene panel", "assay": "ex vivo human skin tissue culture, PCR fold change of retinoid gene panel", "conditions": "for regulation of CYP26A1, ALDH1A2, RDH10, RARRES1 and LRAT: by Day 7 compared to Day 5, single donor, tRA media, retinol propionate topical (FIG. 6C); for regulation of CRABP2, RARG and CEBPA / regulation of Cyp26B1: day 7, 37° C., tRA media applied, retinol propionate topically applied (FIG. 6C)", "procedure": "FIGS. 6A, 6B, and 6C provide heat maps illustrating the fold change for the gene panel of FIG. 3 over a 7 day time course following media dosing with the tRA and retinol propionate. The cells in FIGS. 6A, 6B, and 6C are cross-hatched in the same way as the cells in FIG. 4 (i.e., see the legend provided in FIG. 4). The tRA was media applied and the retinol propionate was topically applied to the ex-vivo tissue samples (N=6 per material), which were incubated at 37° C. and 50% relative humidity. At the end of 48 hours, 5 days and 7 days, two 4 mm punch biopsies were removed from each of the tissue samples for RNA isolation followed by PCR analysis. […] These genes are all important in retinoic acid-mediated regulation of human skin growth and differentiation.\nReferring again to FIGS. 6A, 6B, and 6C, the fold change data from a single donor over a 7 day time course is shown for media application of tRA and topical application of retinol propionate.\n(§1) Skin preparation involved preparation of media in advance of the arrival of skin (3× media including 500 ml DMEM plus 15 ml of antibiotic and antimycotics; the 3× referred to 3-fold levels of antibiotics/antimycotics used for the initial hour of incubation; 1× Media: 500 ml DMEM plus 5 ml of antibiotic and antimycotics). The skin arrived with the dermis (fat) side down on sterile DMEM soaked gauze in a sterile culture dish. The culture dish was taped shut and in a biohazard zip-lock baggie on an ice pack in a secondary container.\n(§2) On arrival, the skin was removed from the bag and soaked in 3×DMEM media and stored at 4° C. for 1 hour. After 1 hour, the skin was removed from the 3×DMEM and rinsed with sterile 1×PBS. The skin was placed in a clean culture dish containing gauze soaked with 1×DMEM. The sample was put in culture the same day as arrival; though the sample may be stored overnight at 4° C. if desired.\n(§3) In preparation for culture, the following were performed on the skin tissue. On a cutting mat, the skin tissue was positioned such that the epidermis was down and the fat was exposed. The fat was removed with a disposable scalpel by carefully grasping one corner of the skin with sterile serrated forceps and scraping the fat away with the blade held at a 45 degree angle to the skin. After the fat was removed, the surgical edges were cut off with a scalpel using a scraper as a straight edge guide and to hold the skin in place. Using the scraper as a guide, the skin was cut into 1.25 cm wide strips using a ruler (such as the one on optionally provided on the cutting mat) to measure the width. The strip was rinsed in a 100 mm culture dish containing 1×PBS. The strips were cut into 1.25 cm squares and placed in a 100 mm culture dish onto 1×DMEM soaked gauze until they were put into culture 30 minutes later (with time points of 15 minutes, 30 minutes, 45 minutes, or an hour being used in various non-limiting examples).\n(§4) Culturing involved putting 2.5 ml of media or treatment into each well of a 6-well tissue plate, adding one Millicell® brand culture insert to each well, and putting 100 μl of 1×DMEM on the center of each insert membrane. The skin sample squares were selected randomly and placed into each of the inserts (one skin sample per insert), on top of the media on the membrane. The plates were stored at 33° C. (though an additional non-limiting example would be 37° C. depending on the experiment endpoint). As a control, baseline tissue measurements were collected from excess waste (cryogenics were used for snap freezing). Baseline biopsy collection involved from each tissue piece; one 4 mm punch for MTT; one 4 mm punch (snap frozen in OCT) for fresh histology; One 4 mm punch was fixed in 10% formalin for paraffin embedding and two 4 mm punches (snap frozen in liquid nitrogen) for PCR.\nCulture and treatment of the model comprised replicates of n=6 (though replicates of additional quantities may be used such as n=5)."}, "[3]": {"tested_on": "dermal gene panel", "assay": "ex vivo human skin tissue culture, PCR fold change of dermal gene panel vs untreated control", "procedure": "The culturing temperature can also affect the pattern and magnitude of the gene regulation in ex vivo tissue samples. Referring to FIGS. 9A and 9B, heat maps illustrate the fold changes for nine dermal genes for five different donor tissue samples incubated at 33° C. for 7 days and 50% relative humidity and five different donor tissue samples incubated at 37° C. for 7 days at 50% relative humidity. The tissue samples were treated with a media supplied dose of 20 ng/ml of TGFβ-1. […]\nReferring to FIG. 18, an olive oil extract, an artichoke leaf extract, and a blend of these extracts were evaluated according to methods described herein. The cells in the table of FIG. 18 are cross-hatched in the same way as the cells in the table of FIG. 4 (i.e., see the legend provided in FIG. 4). The fold-increase/decrease in expression, versus an untreated control, was determined for the dermal gene panel set forth in FIG. 3 for ex vivo tissue from a single donor over a 7 day time course. The skin samples were incubated at a temperature of 37° C. and a relative humidity of 55%. The test agents were applied topically to the skin samples. […] This is another example of identifying actives that may synergistically provide anti-aging benefit.\nas §1, §2, §3\nas §4, with “Baseline biopsy collection involved from each tissue piece; one 4 mm punch for MTT; one 4 mm punch (snap frozen in OCT) for fresh histology; One 4 mm punch was fixed in 10% formalin for paraffin embedding and two 4 mm punches (snap frozen in liquid nitrogen) for PCR.” left out"}, "[4]": {"tested_on": "TGFβ-2 and TGFβ-3", "assay": "ex vivo human skin tissue culture, PCR fold change of TGFβ-2 and TGFβ-3", "conditions": "media dosing, 33° C., 55% relative humidity, 4 and 7 days, N=6 (FIG. 4)", "procedure": "FIG. 4 illustrates a heat map of the fold change of some of the genes from FIG. 3 following media dosing of ex vivo tissue samples (N=6 per material) incubated at 33° C. and 55% relative humidity with four materials over a 7 day time course. Cross-hatching is provided in some of the cells of the table in FIG. 4 to indicate statistically significant up-regulation (p value≦0.05 and p value≦0.1) and statistically significant down regulation p value≦0.05 and p value≦0.1). In addition to TGFβ-1, three exogenous materials believed to provide one or more in vivo, anti-aging skin benefits were tested. The three exogenous materials tested were a vitamin B3 compound (i.e., niacinamide), a peptide (i.e., PAL-KT brand peptide (palmitoyl-lysine-threonine)), and an olive oil extract (i.e., OLIVEM 460 brand olive oil extract). Niacinamide is believed to provide a number of cosmetic skin care benefits (see, e.g., Bissett el al. “Niacinamide: A B Vitamin that Improves Aging Facial Skin Appearance” and Draelos “Clinical Situations Conducive to Proactive Skin Health and Anti-Aging Improvement”). […]"}, "[5]": {"conditions": "33° C., 7 days, 50% relative humidity, media 20 ng/ml, five donors (FIG. 9B)"}},
  "data": [
    {"compound": "CCC(=O)OC/C=C(C)/C=C/C=C(C)/C=C/C1=C(C)CCCC1(C)C", "note": "[retinol propionate]", "values": [
      {"measurement": "relative fold change of epidermal gene panel (rank order)", "setting": "[1]", "value": "tRA>retinol>retinol propionate"},
      {"measurement": "regulation of AQP3", "setting": "[1]", "value": "up-regulated"},
      {"measurement": "regulation of KRT10 and FLG", "setting": "[1]", "value": "significantly down-regulated"},
      {"measurement": "regulation of CYP26A1, ALDH1A2, RDH10, RARRES1 and LRAT", "setting": "[2]", "value": "down-regulated with statistical significance"},
      {"measurement": "regulation of CRABP2, RARG and CEBPA", "setting": "[2]; 50% relative humidity", "value": "strongly up-regulate"},
      {"measurement": "regulation of Cyp26B1", "setting": "[2]; 50% relative humidity", "value": "strongly up-regulated"}
    ]},
    {"compound": "CC1=C(/C=C/C(C)=C/C=C/C(C)=C/CO)C(C)(C)CCC1", "note": "[retinol]", "values": [
      {"measurement": "relative fold change of epidermal gene panel (rank order)", "setting": "[1]", "value": "tRA>retinol>retinol propionate"},
      {"measurement": "regulation of AQP3", "setting": "[1]", "value": "up-regulated"},
      {"measurement": "regulation of KRT10 and FLG", "setting": "[1]", "value": "significantly down-regulated"}
    ]},
    {"compound": "CC1=C(/C=C/C(C)=C/C=C/C(C)=C/C(=O)O)C(C)(C)CCC1", "note": "[tRA, trans-retinoic acid]", "values": [
      {"measurement": "relative fold change of epidermal gene panel (rank order)", "setting": "[1]", "value": "tRA>retinol>retinol propionate"},
      {"measurement": "regulation of AQP3", "setting": "[1]", "value": "up-regulated"},
      {"measurement": "regulation of KRT10 and FLG", "setting": "[1]", "value": "significantly down-regulated"},
      {"measurement": "response of retinoid metabolism genes, tRA compared with RP", "setting": "[2]; 37° C., 50% relative humidity, 48 hours to 7 days (FIGS. 6A-6C)", "value": "stronger response"},
      {"measurement": "regulation of CYP26A1, ALDH1A2, RDH10, RARRES1 and LRAT", "setting": "[2]", "value": "down-regulated with statistical significance"},
      {"measurement": "regulation of CRABP2, RARG and CEBPA", "setting": "[2]; 50% relative humidity", "value": "strongly up-regulate"},
      {"measurement": "regulation of Cyp26B1", "setting": "[2]; 50% relative humidity", "value": "strongly up-regulated"}
    ]},
    {"compound": "TGFβ-1: endogenous gene stimulative compound, known regulator of dermal matrix genes; used as positive control", "values": [
      {"measurement": "regulation of ELN and LOXL2", "setting": "[3]; [5]", "value": "did not show statistically significant up-regulation"},
      {"measurement": "regulation of FN1, COL1A1 and COL3A1", "setting": "[3]; [5]", "value": "significantly up-regulated"},
      {"measurement": "statistically significant up-regulation of ELN and LOXL2 across a majority of donors", "setting": "[3]; 37° C., 7 days, 50% relative humidity, media 20 ng/ml, five donors (FIG. 9A)", "value": "did at 37 °C"},
      {"measurement": "regulation of FN1, LOXL2, COL3A1, ELN and LOXL1", "setting": "[3]; 24 hrs, media application 20 ng/ml, single donor, 37° C., 50% relative humidity (FIG. 8A)", "value": "significantly regulated"},
      {"measurement": "number of statistically significant genes up-regulated at 37° C. versus 33° C.", "setting": "[3]; 7 days, 50% relative humidity, media 20 ng/ml, nine dermal genes", "value": "increased dramatically"},
      {"measurement": "donor tissues with statistically significant up-regulation of at least FN1, COL1A1 and ELN", "setting": "[3]; media 20 ng/ml, 11 days, 33° C., 70% relative humidity, eight donor tissues (FIG. 15)", "value": 80, "unit": "%"},
      {"measurement": "time of most robust response of dermal genes", "setting": "[3]; media application 20 ng/ml, single donor, 37° C., 50% relative humidity, 1 to 7 days (FIG. 8A)", "value": "between Day 5 and Day 7"},
      {"measurement": "regulation of FN1, COL1A1 and COL3A1", "setting": "[3]; media applied 20 ng/ml, single donor, time course 24 hrs to 7 days (FIG. 2)", "value": "increasingly up-regulated"},
      {"measurement": "response of dermal genes", "setting": "[3]; media supplied (FIGS. 2, 4, 7 and 8)", "value": "strong, consistent, up-regulation response"}
    ]},
    {"compound": "palmitoyl-lysine-threonine [peptide]", "values": [
      {"measurement": "regulation of TGFβ-2 and TGFβ-3", "setting": "[4]", "value": "up-regulated"}
    ]}
  ]
}
